How the values were obtained:
[1] = test system: panel of osteosarcoma cells (U2-OS, Saos-2, MG-63, MNNG/HOS, KHOS/NP); experiment: Growth inhibition assay across panel of osteosarcoma cell lines; assay type: cell-based; conditions: for IC50: range over five osteosarcoma cell lines
Saos-2 = experiment: cells; assay type: cell-based, human; conditions: for IC50: Homo sapiens, SAOS-2, 120 h, read-out: IC50 growth inhibition
[2] = biological target: T1, EGFR phosphorylation of tyrosine (Tyr) 1068 (Homo sapiens, UniProt P00533); experiment: P-EGFR in tumor tissue (immunohistochemistry, Western blot); assay type: in vivo; conditions: tumors 3 h after last dose, 80 mg/kg, N = 4
T1 construct: Western blotting in tumor samples obtained from animals treated with ZR2002, JS61, JS84 or the vehicle; from tissue; host or cells: Saos-2 xenograft tumours grown subcutaneously in NSG mice
T1 sequence (P00533 25-1210): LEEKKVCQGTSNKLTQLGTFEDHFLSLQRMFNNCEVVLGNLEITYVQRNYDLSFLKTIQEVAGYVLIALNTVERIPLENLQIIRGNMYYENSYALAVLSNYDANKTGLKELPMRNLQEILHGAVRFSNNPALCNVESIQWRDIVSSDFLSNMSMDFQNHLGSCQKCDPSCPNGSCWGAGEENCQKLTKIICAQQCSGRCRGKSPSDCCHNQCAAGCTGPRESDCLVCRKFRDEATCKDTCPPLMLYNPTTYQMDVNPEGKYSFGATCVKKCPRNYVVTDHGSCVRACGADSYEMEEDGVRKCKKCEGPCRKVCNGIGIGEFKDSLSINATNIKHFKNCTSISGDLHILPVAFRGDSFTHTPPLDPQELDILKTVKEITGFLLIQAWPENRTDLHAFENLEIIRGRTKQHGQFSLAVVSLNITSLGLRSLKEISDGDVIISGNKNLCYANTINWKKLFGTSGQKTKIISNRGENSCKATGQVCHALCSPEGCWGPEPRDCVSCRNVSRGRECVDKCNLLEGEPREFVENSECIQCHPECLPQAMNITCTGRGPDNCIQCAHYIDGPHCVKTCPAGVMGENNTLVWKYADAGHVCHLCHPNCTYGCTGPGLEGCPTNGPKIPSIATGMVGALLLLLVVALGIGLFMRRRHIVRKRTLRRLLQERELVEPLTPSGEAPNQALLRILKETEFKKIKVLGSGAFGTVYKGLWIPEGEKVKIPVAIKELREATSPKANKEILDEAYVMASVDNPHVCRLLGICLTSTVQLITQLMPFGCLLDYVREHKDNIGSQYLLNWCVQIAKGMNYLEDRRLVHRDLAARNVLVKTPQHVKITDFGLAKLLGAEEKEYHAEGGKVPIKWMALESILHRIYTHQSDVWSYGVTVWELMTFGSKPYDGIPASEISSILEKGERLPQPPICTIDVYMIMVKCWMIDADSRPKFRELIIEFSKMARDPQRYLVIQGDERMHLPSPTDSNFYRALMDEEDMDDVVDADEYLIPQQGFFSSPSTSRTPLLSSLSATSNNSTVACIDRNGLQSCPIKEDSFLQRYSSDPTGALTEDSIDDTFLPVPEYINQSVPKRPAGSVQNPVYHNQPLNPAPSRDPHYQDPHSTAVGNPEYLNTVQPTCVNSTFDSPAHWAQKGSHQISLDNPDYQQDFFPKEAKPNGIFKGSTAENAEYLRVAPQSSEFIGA
Experimental: In order to study the drug pharmacokinetics, 1 last dose (the 11th dose) was administered 3 h prior to sacrifice and after a break of 5 days from the previous drug administration.
At the end of the study, the mice were sacrificed, and the plasma and tumors were collected. The plasma was stored at −80 °C, and the tumor tissues were transversely cut into 2 parts: 1 was immediately frozen in liquid nitrogen and stored at −80 °C for Western blots and LC-MS analysis; the other was fixed in 4% paraformaldehyde and used for histology.
The tumors were fixed for 36 h in 4% paraformaldehyde, transferred to 70% EtOH and paraffin-embedded. Sections 4 µm thick were deparaffinized, rehydrated and incubated for 20 min at 37 °C with anti-P-EGFR (1–100, ab40815, Abcam, Cambridge, UK) or anti-P-H2AX (1–100, sc-517348, Santa Cruz Biotechnology, Dallas, TX, USA), followed by secondary Ab incubation with OmniMap anti-Rb HRP (760–4311, Roche, Basel, Switzerland) at room temperature for 16 min, followed by the detection kit ChromoMap Kit (760–4304, Roche, Basel, Switzerland), and the slides were then counterstained with hematoxylin, dehydrated, cleared and cover-slipped. The slides were digitally scanned using an Aperio scanner scope XT.
The tumor tissue samples were smashed with liquid nitrogen into a mortar, and the tumor powders were transferred to cold RIPA 1x buffer with an anti-protease and anti-phosphatase inhibitor cocktail (Roche, Basel, Switzerland) in ice for 1 h and sonicated. After centrifugation, the proteins were quantified and mixed in Laemmli buffer (Sigma-Aldrich, St. Louis, MO, USA), maintaining the same concentration.
Cell lysates or tissue lysates were loaded onto 4–20% SDS-PAGE gels (mini-protean TGx stain-free, Bio-Rad, Hercules, CA, USA) and transferred to PVDF membranes that were pre-wetted with methanol. […] The quantification of the immunoblots was performed on digitalized images using ImageLab Software 6.1 (Bio-Rad, Hercules, CA, USA). […]

KHOS/NP = experiment: cells; assay type: cell-based; conditions: Homo sapiens, 120 h, read-out: IC50 growth inhibition

SMILES | IC50 [1] [nM] | fold more potent than JS61 ([1]; ratio of IC50 values across the panel) | fold more potent than JS84 (Saos-2) [fold] | IC50 (Saos-2) [nM] | EGFR phosphorylation of Tyr 1068 in tumors vs vehicle [2] | IC50 (KHOS/NP) [nM]
ClCCNc1ccc2ncnc(Nc3cccc(Br)c3)c2c1 [ZR2002] | 80 to 450 | 17–36 fold | 7 | 80 ± 10 | reduced | 190 ± 30
ClCCN(CCCl)c1ccc2ncnc(Nc3cccc(Br)c3)c2c1 [JS61] | 1390 to 12500 | – | – | 1590 ± 100 | detectable EGFR phosphorylation | 6830 ± 500
CN(CCCl)c1ccc2ncnc(Nc3cccc(Br)c3)c2c1 [JS84] | 180 to 5040 | – | – | 250 ± 40 | detectable EGFR phosphorylation | 1380 ± 300

Source: PMC10046901, “Molecular Analysis of the Superior Efficacy of a Dual Epidermal Growth Factor Receptor (EGFR)-DNA-Targeting Combi-Molecule in Comparison with Its Putative Prodrugs 6-Mono-Alkylamino- and 6,6-Dialkylaminoquinazoline in a Human Osteosarcoma Xenograft Model” (Cells, 2023)
